Test results taken from patent publication US10053435B2, “Furoxan compound, and manufacturing method for same” (NATIONAL UNIVERSITY CORPORATION KOBE UNIVERSITY, priority 2015, dated 2018).

Test: Nitric oxide-releasing ability (Griess reagent, with L-cysteine in phosphate buffer)
Conditions: for Nitric oxide-releasing rate: 0.1 mM furoxan compound, 5 mM L-cysteine, 50 mM phosphate buffer pH 7.4, 37° C., 1 hour, one molecule of furoxan taken to release one molecule of nitric oxide; for nitric oxide-releasing ability (in words): conclusion from Table 1; for 3 - X/4 - X (NO-releasing rate of 3-halofuroxan/NO-releasing rate of 4-halofuroxan): ratio of the rates of the 3-halo and 4-halo isomers, same conditions as the releasing rate
Method: The ability to release nitric oxide on each of (4-fluoro-3-(4-methylphenyl)furoxan, 3-fluoro-4-(4-methylphenyl)furoxan, 4-chloro-3-(4-methylphenyl)furoxan, and 3-chloro-4-(4-methylphenyl)furoxan was evaluated by the following method.
Each furoxan compound and L-cysteine were dissolved in 50 mM phosphate buffer (pH 7.4) to have a concentration of 0.1 mM and 5 mM, respectively, thereby to prepare a solution with a total volume of 6 mL. After stirring the solution at 37° C. for 1 hour, 3 mL of the solution was added to a light absorption cell and 250 μL of Griess reagent was added. After being left to stand at room temperature for 10 minutes, the absorbance was measured. The nitric oxide-releasing rate was obtained from a calibration curve prepared in advance using a sodium nitrite solution.

| Compound | Nitric oxide-releasing rate | nitric oxide-releasing rate compared to that of the 3-chlorofuroxan compound (3-fluoro versus 3-chloro compound, same conditions) | nitric oxide-releasing ability (in words) | 3 - X/4 - X (NO-releasing rate of 3-halofuroxan/NO-releasing rate of 4-halofuroxan) |
| --- | --- | --- | --- | --- |
| Cc1ccc(-c2no[n+]([O-])c2Cl)cc1 [3-Chloro compound, 3-chloro-4-(4-methylphenyl)furoxan, reference compound] | 16.7% | – | – | – |
| Cc1ccc(-c2no[n+]([O-])c2F)cc1 [3-Fluoro compound, 3-fluoro-4-(4-methylphenyl)furoxan] | 36.8% | twice or more | extremely high nitric oxide-releasing ability | – |
| Cc1ccc(-c2c(Cl)no[n+]2[O-])cc1 [4-Chloro compound, 4-chloro-3-(4-methylphenyl)furoxan, reference compound] | 4.2% | – | – | 4.0 times |
| Cc1ccc(-c2c(F)no[n+]2[O-])cc1 [4-Fluoro compound, 4-fluoro-3-(4-methylphenyl)furoxan] | 2.5% | – | almost no nitric oxide-releasing ability | 14.7 times |
